Values quoted from earlier work, collected in publication PMC7886095 (Drug Design, Development and Therapy, 2021).

aqueous solubility: < 1 µg/mL
SMILES: COc1cc(O)c2c(=O)cc(-c3ccc(O)cc3)oc2c1 [GKA, Genkwanin]
